Entries after “also recorded” stand apart in the source; their conditions may differ.
Tests used:
[1] = system: SH-SY5Y neuroblastoma cells; assay: MTT cell viability assay; format: cell-based
[2] = system: HCI-001 breast cancer cells; assay: MTT cell viability assay; format: cell-based
MDA-MB-468 cells = assay: MTT cell viability assay (FIG. 2); format: cell-based, human; conditions: MDA-MB-468, known to overexpress MYC
[3] = system: MCF10A cells overexpressing the MYC oncogene; assay: MTT assay, MYC overexpressing versus vector control cells; format: cell-based, human
Description: (§1) The N-Myc-related gene c-Myc, or MYC, is frequently overexpressed in many human cancers, including breast cancer.

[4] = system: broad array of cancer and epithelial cell lines; assay: MTT cell viability assays with increasing concentrations (FIG. 2, FIG. 5); format: cell-based
[5] = system: BT474, MDA-MB-468, B16, KPPC, HMEC and HaCaT cell lines; assay: DNA synthesis (tritiated thymidine incorporation), cell line panel; format: cell-based; conditions: 24 h treatment, 0 to 8%, DNA synthesis during a 3 h window
[6] = system: BT474 breast cancer cells; assay: DNA synthesis (tritiated thymidine incorporation); format: cell-based; conditions: 24 h treatment, 0 to 8%
[7] = system: human mammary epithelia cells (HMEC); assay: DNA synthesis (tritiated thymidine incorporation); format: cell-based; conditions: HMEC non-transformed epithelial line; 24 h
[8] = system: human keratinocytes (HaCaT); assay: DNA synthesis (tritiated thymidine incorporation); format: cell-based; conditions: HaCaT non-transformed epithelial line; 24 h
CDCP1 cleavage = CDCP1 cleavage in MDA-MB-231 breast cancer cell extracts; format: cell-based
Description: (§2) None of the treatments altered the overall pattern of protein tyrosine phosphorylation. […] Cleavage of CDCP1 may play a role in driving tumor invasion given the preferential binding of the cleaved form of CDCP1 with cell adhesion molecules such as beta1-integrin and E-cadherin.

PAI-1 = PAI-1 levels in MDA-MB-231 breast cancer cell extracts; format: cell-based; conditions: FIG. 6
Description: as §2

[9] = system: histone lysine acetylation; assay: Histone lysine acetylation in BT474 cells; format: cell-based
[10] = system: epidermal growth factor receptor (EGFR); assay: EGFR expression (FIG. 8); format: cell-based
[11] = system: lysine acetylation of cellular proteins; assay: Lysine acetylation of cellular proteins and histones (FIG. 8); format: cell-based
[12] = system: MDA-MB-468 breast cancer cells; assay: Markers of the mitotic phase (cyclin B, MPM2); format: cell-based, human; conditions: 1%
[13] = system: BT474 breast cancer cells; assay: Markers of the mitotic phase (cyclin B, MPM2); format: cell-based; conditions: 1%
cell cycle = assay: Cell cycle study; format: cell-based
[14] = system: protein lysine acetylation in a second breast cancer cell line; assay: Protein lysine acetylation over time (FIG. 10); format: cell-based; conditions: as early as 4 h
histone H3 = assay: Acetylation of histone H3 on lysine 27 and lysine 9; format: cell-based
[15] = system: HCI-012/LVM2/LR10 drug-resistant, HER2+, metastatic breast cancer; assay: Breast tumor growth in patient-derived model; format: in vivo, mice; conditions: orally, once daily, 375 mg/kg
[16] = system: AKT in MYC overexpressing MCF10A cells; assay: AKT activity (phospho-AKT substrate antibody); format: cell-based, human
Description: as §1

[17] = system: AKT in MDA-MB-468 human breast cancer cell line; assay: AKT activity (phospho-AKT substrate antibody); format: cell-based
Description: as §1

S6K1 (p70s6k) = assay: Ribosomal S6 protein phosphorylation; format: cell-based
Description: as §1

STAT3 = STAT3 phosphorylation; format: cell-based
Description: as §1

MDA-MB 468 cells = assay: MTT assay with tranexamic acid derivatives; format: cell-based, human; conditions: MDA-MB 468, 72 h, increasing concentrations
Protocol: MDA-MB 468 cells were plated at 6,250 cells per well in a 96-well plate and incubated overnight at 37° C. […] Cell viability was evaluated using an MTT assay.

[18] = system: programmed death-ligand 1 (PD-L1); assay: PD-L1 expression (FIG. 18); format: cell-based; conditions: high concentration (2%)
plasmin [19] = molecular target: T1, plasmin (Homo sapiens, UniProt P00747); conditions: accepted value from studies; cited from earlier work
Target sequence in this assay (P00747 20-810 limits assumed): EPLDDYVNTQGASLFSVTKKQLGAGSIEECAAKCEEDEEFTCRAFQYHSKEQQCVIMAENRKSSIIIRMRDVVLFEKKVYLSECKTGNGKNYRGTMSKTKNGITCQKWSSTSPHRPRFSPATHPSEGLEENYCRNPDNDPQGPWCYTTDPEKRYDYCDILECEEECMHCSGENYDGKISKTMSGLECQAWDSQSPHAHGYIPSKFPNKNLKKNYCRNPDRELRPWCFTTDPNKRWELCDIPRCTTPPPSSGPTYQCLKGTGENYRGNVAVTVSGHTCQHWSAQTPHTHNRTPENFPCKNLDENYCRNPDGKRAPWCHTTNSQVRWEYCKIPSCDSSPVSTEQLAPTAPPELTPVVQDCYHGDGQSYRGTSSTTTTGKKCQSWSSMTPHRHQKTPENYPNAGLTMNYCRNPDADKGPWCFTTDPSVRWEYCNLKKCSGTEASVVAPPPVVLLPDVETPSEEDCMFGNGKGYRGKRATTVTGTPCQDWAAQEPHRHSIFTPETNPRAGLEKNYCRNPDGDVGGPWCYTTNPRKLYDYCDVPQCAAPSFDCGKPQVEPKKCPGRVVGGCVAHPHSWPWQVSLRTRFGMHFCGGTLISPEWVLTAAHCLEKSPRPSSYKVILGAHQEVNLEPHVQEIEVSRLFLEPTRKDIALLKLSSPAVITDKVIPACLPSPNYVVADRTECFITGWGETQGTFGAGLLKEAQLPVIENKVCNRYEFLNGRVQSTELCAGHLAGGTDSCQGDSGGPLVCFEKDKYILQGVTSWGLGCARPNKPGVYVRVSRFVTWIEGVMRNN

[20] = intravenous doses of 80-100 mg/kg and above, e.g. during heart surgery; cited from earlier work
non-melanoma skin cancer = conditions: mice, long-term UV irradiation; cited from earlier work
plasmin [21] = molecular target: T1, plasmin; conditions: cited from earlier work
Target sequence in this assay (P00747 581-810 limits assumed, species assumed): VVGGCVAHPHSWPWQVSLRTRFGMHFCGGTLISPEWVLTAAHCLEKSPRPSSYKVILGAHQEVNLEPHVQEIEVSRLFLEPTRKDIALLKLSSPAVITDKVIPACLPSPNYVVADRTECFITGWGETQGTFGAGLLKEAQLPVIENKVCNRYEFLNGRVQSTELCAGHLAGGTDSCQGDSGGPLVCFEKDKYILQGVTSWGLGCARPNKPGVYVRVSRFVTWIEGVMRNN
Target sequence in this assay (P00747 97-580 partner limits assumed, species assumed): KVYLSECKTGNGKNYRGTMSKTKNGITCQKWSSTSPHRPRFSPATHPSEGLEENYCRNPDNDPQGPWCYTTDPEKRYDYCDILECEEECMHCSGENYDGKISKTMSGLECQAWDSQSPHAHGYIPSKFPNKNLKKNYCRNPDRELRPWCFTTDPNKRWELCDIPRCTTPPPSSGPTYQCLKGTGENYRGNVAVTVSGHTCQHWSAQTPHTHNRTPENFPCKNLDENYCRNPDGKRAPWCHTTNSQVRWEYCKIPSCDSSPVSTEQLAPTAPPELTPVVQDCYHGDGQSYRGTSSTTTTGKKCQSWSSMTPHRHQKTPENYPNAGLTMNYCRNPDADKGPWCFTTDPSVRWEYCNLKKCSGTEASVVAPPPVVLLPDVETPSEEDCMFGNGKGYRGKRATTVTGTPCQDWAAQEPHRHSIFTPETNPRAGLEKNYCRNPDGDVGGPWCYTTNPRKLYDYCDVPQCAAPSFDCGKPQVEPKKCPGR

[22] = molecular target: p300 acetyltransferase enzyme (Homo sapiens, UniProt Q09472); assay: p300 acetyltransferase enzyme assays (immunoblot H3K9Ac / H3K27Ac); conditions: two sets of enzyme assays
Sequence of p300 acetyltransferase enzyme (Q09472 whole entry): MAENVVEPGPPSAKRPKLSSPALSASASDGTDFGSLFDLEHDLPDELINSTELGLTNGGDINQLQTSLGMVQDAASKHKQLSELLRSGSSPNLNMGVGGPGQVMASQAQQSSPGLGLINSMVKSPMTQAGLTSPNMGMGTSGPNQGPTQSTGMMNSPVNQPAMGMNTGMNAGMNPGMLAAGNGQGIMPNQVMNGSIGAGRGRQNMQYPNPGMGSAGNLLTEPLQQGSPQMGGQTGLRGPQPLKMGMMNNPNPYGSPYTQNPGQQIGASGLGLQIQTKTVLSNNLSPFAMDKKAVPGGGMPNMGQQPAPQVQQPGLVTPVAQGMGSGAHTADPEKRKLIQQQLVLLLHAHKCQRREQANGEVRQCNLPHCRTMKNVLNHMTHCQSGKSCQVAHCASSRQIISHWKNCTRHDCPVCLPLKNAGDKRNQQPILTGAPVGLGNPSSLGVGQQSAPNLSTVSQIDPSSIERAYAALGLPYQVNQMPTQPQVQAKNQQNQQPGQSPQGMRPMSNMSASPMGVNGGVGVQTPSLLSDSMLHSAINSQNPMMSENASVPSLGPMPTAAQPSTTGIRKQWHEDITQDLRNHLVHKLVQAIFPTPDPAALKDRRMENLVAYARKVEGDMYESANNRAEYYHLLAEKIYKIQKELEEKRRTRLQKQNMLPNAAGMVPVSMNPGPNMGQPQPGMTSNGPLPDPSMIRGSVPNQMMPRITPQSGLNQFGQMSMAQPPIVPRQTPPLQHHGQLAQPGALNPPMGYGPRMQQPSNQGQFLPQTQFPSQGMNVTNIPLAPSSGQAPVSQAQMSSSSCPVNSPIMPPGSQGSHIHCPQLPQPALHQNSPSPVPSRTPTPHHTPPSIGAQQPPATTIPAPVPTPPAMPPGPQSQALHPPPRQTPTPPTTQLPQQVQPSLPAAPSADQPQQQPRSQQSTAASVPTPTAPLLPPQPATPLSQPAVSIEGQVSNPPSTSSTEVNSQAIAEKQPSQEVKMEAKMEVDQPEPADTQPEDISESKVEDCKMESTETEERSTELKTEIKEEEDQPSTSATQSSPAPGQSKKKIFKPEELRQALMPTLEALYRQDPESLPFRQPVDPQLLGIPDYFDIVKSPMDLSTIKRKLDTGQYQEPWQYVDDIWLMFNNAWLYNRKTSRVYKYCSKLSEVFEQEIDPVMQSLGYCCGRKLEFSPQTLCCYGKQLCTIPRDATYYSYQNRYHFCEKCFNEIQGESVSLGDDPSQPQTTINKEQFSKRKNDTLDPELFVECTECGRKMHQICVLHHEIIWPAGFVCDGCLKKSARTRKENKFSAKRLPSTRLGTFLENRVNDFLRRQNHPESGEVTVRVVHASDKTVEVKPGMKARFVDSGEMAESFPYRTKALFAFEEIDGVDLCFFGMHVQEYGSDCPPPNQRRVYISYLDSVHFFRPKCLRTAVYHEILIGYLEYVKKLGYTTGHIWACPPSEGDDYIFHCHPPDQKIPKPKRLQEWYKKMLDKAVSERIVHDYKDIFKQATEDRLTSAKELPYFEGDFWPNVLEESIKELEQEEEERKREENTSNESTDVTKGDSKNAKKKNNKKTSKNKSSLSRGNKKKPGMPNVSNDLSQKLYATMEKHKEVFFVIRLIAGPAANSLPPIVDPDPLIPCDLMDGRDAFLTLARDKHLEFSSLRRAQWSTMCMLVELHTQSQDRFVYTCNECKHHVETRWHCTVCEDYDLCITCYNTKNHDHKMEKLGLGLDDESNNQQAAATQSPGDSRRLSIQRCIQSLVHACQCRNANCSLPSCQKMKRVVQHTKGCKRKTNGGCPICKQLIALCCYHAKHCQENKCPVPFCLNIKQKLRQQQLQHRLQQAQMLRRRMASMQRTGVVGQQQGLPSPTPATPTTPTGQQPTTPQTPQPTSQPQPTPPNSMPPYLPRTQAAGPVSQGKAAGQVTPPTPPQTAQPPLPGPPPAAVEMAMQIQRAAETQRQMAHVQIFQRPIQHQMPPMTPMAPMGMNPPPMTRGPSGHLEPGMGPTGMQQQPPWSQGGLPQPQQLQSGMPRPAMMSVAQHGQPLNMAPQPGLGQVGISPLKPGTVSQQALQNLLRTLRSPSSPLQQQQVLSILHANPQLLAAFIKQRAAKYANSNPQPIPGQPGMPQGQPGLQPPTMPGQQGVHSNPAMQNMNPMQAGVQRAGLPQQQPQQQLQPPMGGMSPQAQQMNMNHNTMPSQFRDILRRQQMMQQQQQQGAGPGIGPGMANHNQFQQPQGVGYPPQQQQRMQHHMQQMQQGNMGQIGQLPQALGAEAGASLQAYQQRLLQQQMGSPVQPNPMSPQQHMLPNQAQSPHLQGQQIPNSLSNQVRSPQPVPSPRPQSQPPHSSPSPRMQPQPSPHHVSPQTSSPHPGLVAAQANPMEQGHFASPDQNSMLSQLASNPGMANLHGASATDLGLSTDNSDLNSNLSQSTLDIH
Protocol: This is measured by immunoblotting with antibodies that specifically recognize histone 3 (H3) acetylated (Ac) on lysine (K) number 9 or 27.

SMILES: NC[C@H]1CC[C@H](C(=O)O)CC1 [tranexamic acid]
- cell viability (MTT) ([1]; SH-SY5Y neuroblastoma cells): decreased viability
- sensitivity compared to other cell lines tested (MTT) ([1]; SH-SY5Y, N-Myc amplified / MYC overexpressed): most sensitive
- cell viability (MTT) [2]: decreased viability
- sensitivity compared to other cell lines tested (MTT) (MDA-MB-468 cells): most sensitive
- sensitivity of MYC overexpressing cells versus unaltered control cells (MTT) [3]: significant increase in tranexamic acid sensitivity; also recorded: significantly more sensitive
- cell viability (MTT) across cell lines [4]: all lines are inhibited; also recorded: dose dependently suppresses the viability
- DNA synthesis / cell proliferation across cell lines [5]: suppresses the proliferation; also recorded: affected all the cell lines examined
- sensitivity of DNA synthesis compared to other cell lines [6]: most sensitive to low concentrations
- proliferation (DNA synthesis) [7]: affects the proliferation
- proliferation (DNA synthesis) [8]: affects the proliferation
- CDCP1 cleavage at lowest concentration (CDCP1 cleavage; 0.5%): good inhibition of CDCP1 cleavage
- CDCP1 cleavage (CDCP1 cleavage; MDA-MB-231 breast cancer cell extracts): blocks CDCP1 cleavage
- PAI-1 levels / expression (PAI-1): without increasing PAI-1 levels
- effect on histone acetylation in presence of the histone deacetylase inhibitor SAHA [9]: did not overcome the effects of the histone deacetylase inhibitor SAHA
- histone lysine acetylation ([9]; particularly at higher concentrations): suppressed histone lysine acetylation
- expression of EGFR ([10]; FIG. 8): decreases expression
- EGFR downregulation ([10]; FIG. 8, as worded): did not increase
- histone acetylation compared with vehicle treatment [11]: suppressed histone acetylation
- levels of lysine acetylation of cellular proteins [11]: reduces the levels of lysine acetylation
- markers of the mitotic phase of the cell cycle (cyclin B, MPM2) [12]: elevates markers of the mitotic phase
- markers of the mitotic phase of the cell cycle (cyclin B, MPM2) [13]: elevates markers of the mitotic phase
- cell cycle arrest (cell cycle): causes G2/M-phase cell cycle arrest
- protein lysine acetylation [14]: reduces protein lysine acetylation
- acetylation of histone H3 on lysine 9 (histone H3; carried out by other enzymes): not on lysine 9
- acetylation of histone H3 on lysine 27 (histone H3; carried out by p300 and CBP): blocks acetylation
- tumor growth versus vehicle (water) [15]: suppresses tumor growth more effectively than a vehicle
- AKT activity [16]: suppressed AKT activity
- AKT activity [17]: suppressed AKT activity
- p70s6k inhibition (S6K1 (p70s6k)): inhibits p70s6k
- phosphorylation of the ribosomal S6 protein (S6K1 (p70s6k)): reduced phosphorylation of the ribosomal S6 protein
- STAT3 phosphorylation on Serine 727 (STAT3): not Serine 727
- STAT3 phosphorylation on Tyrosine 705 (STAT3): decreases STAT3 phosphorylation on Tyrosine 705
- cell viability (MTT) (MDA-MB 468 cells): reduced MDA-MB 468 cell viability
- PD-L1 expression [18]: did not
- blood concentration required to inhibit formation of plasmin and provide antifibrinolysis (plasmin [19]): 10 to 20 µg/mL
- seizure risk [20]: risk of seizure
- non-melanoma skin cancer development (non-melanoma skin cancer): reduced
- plasma MMP-9 and IL-6, skin plasmin, CC chemokine 2, macrophages, STAT3, cyclin D and VEGF-A (non-melanoma skin cancer): suppresses increases
- plasmin protease activity (plasmin [21]): directly inhibits plasmin protease activity
- p300 acetyltransferase activity [22]: inhibits p300 activity

Source: patent US20220296547A1, “METHODS AND COMPOSITIONS FOR TREATMENT OF DISEASES” (Tranexamic Technologies, LLC, priority 2020, published 2022)
